{"source": "patent US8258301B2", "about": "“Urotensin II receptor antagonists” (Boehringer Ingelheim International GmbH, priority 2007, dated 2012)", "origin": "cited, not measured here", "settings": "patients, clinical trial"}
{"smiles": "Cc1cc(NC(=O)NCCN2CCC(O)(Cc3ccccc3)CC2)c2ccccc2n1", "note": "[Palosuran]", "values": [{"measurement": "modulate the 24-hour urinary albumin excretion rate", "value": 24.3, "unit": "%"}]}
